For series [1], the system named is peripheral blood lymphocytes (PBL) of SLE subjects. To be noted: Compound 1 in captisol®, throughout the study period.
Series [2] deals with Balb/c mice and SLE-prone (NZBxNZW)F1 mice. Conditions: cited from earlier work.
The test system of series [3] is IL-2 secretion from Compound 1 reference standard (RS) specific T-cells. Kind of series: Inhibition of IL-2 secretion from Compound 1 RS specific T-cells following s.c. treatment, ELISA. Format: in vivo, mice. To be noted: at the range of 5-100 μg/ml activator. From the text: The biological activity was monitored by inhibition of IL-2 secretion from Compound 1 reference standard (RS) specific T-cells following subcutaneous (s.c.) treatment with the lyophilized compound solution, i.e. the drug product (DP), at two concentrations. The results of the treatment are compared to those of treating mice with Compound 1 (RS) in phosphate buffered saline (PBS).
On the technique in general: In an ELISA, binding on a coated surface is turned into a signal by an enzyme label.

Series [4] relates to peripheral blood lymphocytes (PBL) of SLE patients. Conditions: cited from earlier work.
Series [5] relates to SLE subjects. Kind of series: Phase Ia single dose clinical study, tolerability and safety. Format: in vivo, human. On the procedure:
The following safety parameters were assessed at Screening, during the hospitalization and at follow-up visits including Termination visit: vital signs (systolic blood pressure, diastolic blood pressure, pulse, oxygen saturation, temperature and weight), 12-lead ECG, change in physical examination and clinical routine laboratory safety tests. Adverse events were recorded at the Dosing Day and at each visit thereafter.

Series [6] concerns SLE subjects. Kind of series: Phase Ib multiple dose clinical study, tolerability and safety. Conditions: multiple subcutaneous doses of 0.5, 1 or 2.5 mg in 120 mg Captisol®; 12 sc injections. The format is in vivo, human. The protocol:
This study is being performed in order to evaluate the safety and tolerability of repeated Compound 1 sc administration to SLE subjects. […] The investigational product is administered every other day (excluding weekends) for a total of 12 sc injections, i.e. 3 doses a week for 4 weeks. Subjects are monitored on planned visits scheduled at 2, 4, 8 and 12 weeks after start of dosing. Safety and tolerability are evaluated using tests similar to those described in the Phase Ia Clinical Study above.

For series [7], the system named is SLE-prone (NZBxNZW)F1 female mouse. Nature of the series: Anti-dsDNA antibodies in SLE-prone mice. Format: in vivo, (NZBxNZW)F1 mice. To be noted: 25 or 50 μg/mouse in Captisol®; after 10 treatment injections; vs Captisol® alone. The protocol:
(§1) The same batch of drug substance was used in this study and in the first Phase I clinical trial with Compound 1. The mice were followed for anti-dsDNA antibodies and for proteinuria. When the mice were sacrificed, the intensity of ICD was determined in kidneys.

The nature of series [8]: Stability of Compound 1 versus pH, initial tests. The format is physicochemical. Conditions: basic pH range. On the procedure: Thus, several buffers and pH adjustment agents were tested, including acetate buffer, citrate buffer and sodium carbonate. None of the initially tested buffers achieved the desired peptide solubility level. […] Nevertheless, at the initial stage, formulations with acetate buffer and citrate buffer (with Mannitol as a tonicity agent) were selected for initial toxicology studies. These formulations were tested for biological activity and proven active.

Series [9] can be described thus: Solubility of Compound 1 peptide, formulation development. Format: physicochemical. The source says:
In order to develop a formulation for sub-cutaneous injection, it is also desirable that the pH be in the range of 4 to 9 and that the solution be iso-osmotic.
The pH was adjusted if needed.

Series [10] deals with SLE-prone (NZBxNZW)F1 female mouse. Kind of series: Intensity of immune complex deposits (ICD) in kidneys. Format: in vivo, (NZBxNZW)F1 mice. On the procedure:
as §1

[11] abbreviates: single s.c. dose 0.5, 1 or 2.5 mg in Captisol®.
[12] abbreviates: single s.c. dose 0.5, 1 or 2.5 mg in Captisol®, vs placebo.

The values that follow come from patent publication US7294687B2, “Parenteral formulations of a peptide for the treatment of systemic lupus erythematosus” (TEVA Pharmaceutical Industries, Ltd., priority 2003, dated 2007).

Read-outs that look alike come from different tables or passages of the source.

The term solubility denotes how much of the substance goes into solution per volume. On to H-GYYWSWIRQPPGKGEEWIG-OH [Compound 1], for which the “immunological response to TTX recall antigen” value in series [1] is “did not change the immunological response to TTX recall antigen”. Besides, the “SLE related findings: immune complex deposits (ICD) in the kidney, proteinuria and leukopenia” value in series [2] (Balb/c and (NZBxNZW)F1 mice) is “significantly reduced”. Also, the “disease manifestations of mice afflicted with spontaneous or experimental SLE” value in [2] (mouse, in vivo) was “ameliorate disease manifestations”. For the same substance, in series [3] (treatment 50 μg/mouse s.c.), the “Average inhibition (%) of IL-2 secretion” value was 45.6%. In addition, the “Average inhibition (%) of IL-2 secretion” value in series [3] (treatment 200 μg/mouse s.c.) stood at 60.4%. Also, in series [4], the “proliferative response of PBL of SLE patients to the human anti-DNA 16/6Id mAB” value is on record as “inhibit the proliferative response”. For the same substance, in the series on SLE subjects [5] (setting [11]), the “QTc change from baseline” value is ≤ 60 ms; the “serious adverse event (SAE) or AE classified as severe” value was “No serious adverse event (SAE) or AE classified as severe occurred”; the “vital signs parameters (systolic and diastolic blood pressure, pulse, oxygen saturation)” value is on record as “No clinically significant effect”. Also, in the series with SLE subjects [5] (setting [12]), the “categorical ECG measurements and digitized ECG parameters” value is “No differences of clinical significance”; the “incidence of AEs” value was “no prominent difference”. Moreover, the “safety and tolerability, Phase Ia” value in the series on SLE subjects [5] (single subcutaneous dose of 0.5, 1 or 2.5 mg in 120 mg Captisol®) is “safe and well tolerated”. In addition, the “safety and tolerability, Phase Ib” value in the series with SLE subjects [6] was “safe and well tolerated”. Also, in [7], the “levels of dsDNA-specific antibodies” value is reported as “no significant differences between groups”. For the same substance, in series [8], the “stability versus pH” value was “less stable”. For the same substance, the solubility in series [9] (only above pH 9.2 and below pH 3.0, buffers and pH adjustment agents, read-out: solubility levels) was ≥ 2000 µg/mL. Besides, the solubility in series [9] (water (aqueous solution), acetate salt, read-out: aqueous solubility of the peptide) is < 500 µg/mL. The “ICD (Mean ± SEM)” value in [10] (50 μg/mouse in Captisol ®, intensity scale 0 = none to 3 = severe/extremely intense) is 1.90 ± 0.23. The “intensity of immune complex deposits in kidney sections” value in [10] (25 or 50 μg/mouse dissolved in Captisol®, FIG. 6) is “much lower than that observed in the control group”.
